This note sets out measurements from patent publication US20010014732A1, “Biocidal proteins” (ZENECA Limited, priority 1991, published 2001).

Assay [1] concerns Cercospora beticola (strain E897). The assay is described as follows: Anti-fungal activity against foliar disease: in vivo test on sugarbeet plants. The following applies: foliar spray one day prior to inoculation.
The subject of assay [2] is Fusarium oxysporum f.sp. pisi IMI 236441. It is filed as cell-based.
Assay [3] deals with Trichoderma hamatum MUCL 29736. It counts as cell-based.
For a further assay, the system named is F culmorum and T hamatum. It counts as cell-based, Fusarium culmorum, Trichoderma hamatum. How it is done: Antifungal activity was measured by microspectrophotometry as previously described (Broekaert, 1990, FEMS Microbiol Lett, 69:55-60). Routinely, tests were performed with 20 μl of a (filter-sterilized) test solution and 80 μl of a suspension of fungal spores (2×10^4 spores/ml) in half strength potato dextrose broth (1/2 PDB). Some tests were performed using a suspension of mycelium fragments in a synthetic growth medium. […] Control microcultures contained 20 μl of sterile distilled water and 80 μl of the fungal suspension.
Unless otherwise stated the test organism was Fusarium culmorum (strain IMI 180420) and incubation was done at 25° C. for 48 hours. Percent growth inhibition is defined as 100 times the ratio of the corrected absorbance of the control microculture minus the corrected absorbance of the test microculture over the corrected absorbance at 595 nm of the control microculture. The corrected absorbance values equal the absorbance at 595 nm of the culture measured after 48 hours minus the absorbance at 595 nm measured after 30 min.
The effect of ions on the antifungal activity of the Rs-AFPs and Rs-nsLTP was examined in more detail. […] The reference medium was the synthetic growth medium described in Example 1 which contains a total of 2.5 mM monovalent cations and 0.1 mM divalent cations. […]

Assay [4] deals with Fusarium culmorum IMI 180420. It is filed as cell-based.
For assay [5], the system named is Septoria nodorum MUCL 30111. It is filed as cell-based.
Assay [6] relates to Bacillus megaterium ATCC 13632. It is filed as cell-based.
Assay [7] concerns Sclerotinia sclerotianum MUCL 30163. It is filed as cell-based.
In assay [8] the test system is Venturia inaegualis MUCL 15927. It counts as cell-based.
Assay [9] relates to Cercospora beticola strain K897. It counts as cell-based.
In assay [10] the test system is Rhizoctonia solani CBS 207-84. It counts as cell-based.
In another assay the test system is plant pathogenic fungi. It counts as cell-based.
In assay [11] the test system is Agrobacterium tumefaciens C58, Alcaligenes eutrophus, Azospirillum brasilense Sp7, Bacillus megaterium ATCC 13632, Erwinia carotovora strain 3912, Escherichia …. It counts as cell-based.

Where “and” joins values, the source holds several entries; their conditions need not be identical. Identical values can stand only once.

As to “Rs-AFP2: antifungal protein from Raphanus sativus (radish) seeds, oligomeric, identical 5 kDa subunits, highly basic (QKLCQRPSGTWSGVCGNNNACKNQCIRLEKARHGSCNYVFPAHKCICYFPC; UniProt P30230 30-80, looked up)”, the “concentration giving 50% control of the disease” value in [1] is “approximately 15 μM”. In addition, the IC50 in [2] is 2 μg/m1; in assay [3], 2 µg/mL; in assay [4], 2 µg/mL and 5 µg/mL; in assay [5], 15 μg/m1 and 20 μg/m1; in assay [7], more than 100 μg/m1; in assay [8], 25 μg/m1 and >50 μg/m1. Also, the IC50 in assay [9] is 2 μg/m1 and 3 μg/m1; in assay [10], more than 100 μg/m1. In addition, in the assay with F culmorum and T hamatum (CaCl2 at 5 mM), the “effect of Ca2+ on antifungal activity” value was “varied from a slight increase in IC50 for F culmorum to complete inactivation for T hamatum”. Moreover, the “effect of K+ on antifungal activity” value with F culmorum and T hamatum (KCl at up to 50 mM) is recorded as “did not affect the antifungal activity”. Moreover, the “antifungal activity of the reversed-phase HPLC peak in medium A and medium B” value in [4] was “active in both medium A and medium B”. In [6], the “concentration causing 50% inhibition of growth” value turned out to be 200 µg/mL. Also, the “fungi inhibited by more than 50% at concentrations below 100 μg/ml” value with plant pathogenic fungi was 11 out of 18. Further, the “effect on the other bacteria” value in assay [11] was “no effect”.

In the case of `CCCCC(O)(Cn1cncn1)c1ccc(Cl)cc1Cl` (stereo not shown) [hexaconazole, reference compound], the “concentration giving 50% control of the disease” value in assay [1] is recorded as “approximately 7 μM”.
